Primed or numbered codes have the meaning given here. Ends that are not written are not given here. PEG2′ = not defined here
Key:
[1] = tested on: NASH-related proteases; test: ex vivo fluorescent probe cleavage (RFU/min) in K2 EDTA plasma, NASH (CDAHFD) vs healthy (CD) mice; assay type: biochemical; conditions: n=10 samples and pooled plasma
Protocol: All animals were used in accordance with animal care guidelines. Plasma was obtained from these blood samples by centrifugation at 3,500 RPM for 20 min at 4° C. The plasma was stored at −80° C. until it was needed for experimental purposes.
Samples were mixed with protease substrates and quenchers/reporters in 96-well plates. The 96-well plates were read on a Biotech Synergy H1, using 465,535 excitation/emission settings.
Probes measuring cathepsin activity were 3-fold higher in protease cleavage kinetics in mice with NASH compared to healthy mice.
A single plasma sample was contacted with the probes for each predetermined protease to provide a multiplex assessment of protease activity in the sample.

[2] = tested on: proteolytic cleavage of Probe #102 (cathepsin L, CTSL); test: protease inhibitor profiling of Probe #102 cleavage in NASH and healthy plasma; assay type: biochemical, mice; conditions: for effect on Probe #102 signal: NASH and healthy plasma
Protocol: For this experiment, all plasma samples were prepared individually and diluted 1/10e in PBS with inhibitor added directly to the samples. Inhibitor was prepared at 15× concentration to final. Substrates were diluted in DI water at 18 uM, such that the final concentration on the plate would be 6 uM. All samples were prepared such that their last dilution on the plate would not affect the desired final concentration. 10 ul of each individual sample was pipetted into their corresponding wells, and the plate was then spun down in the centrifuge at 1500 RPM for 30 seconds to coat the bottom of each well with the sample. 5 ul of the 18 uM substrate solution was pipetted into each well being used on a 384 well plate, and then the plate was spun down in the centrifuge at 1500 rpm for 30 seconds. The plate was placed immediately in the plate reader at 37° C. for a 30-minute-long fluorescence kinetic read at 485/535 extended gain.
To assess the proteolytic cleavage pattern of Probe #102, samples were tested using a pool of broad inhibitors for serine, cysteine, threonine, MMP and aspartic protease family members (broad inhibitor) to assess general protease activity, AEBSF for serine proteases, E64 for cysteine proteases, CTSi for broad cathepsin inhibition of cathepsins L, S, K and B, or specific inhibitors for cathepsin K (L00625), for cathepsin L (SID) or cathepsin B (CA074).

[3] = tested on: cathepsin and/or MMP protease activities; test: probe cleavage in plasma of healthy, NASH regression and NASH progression mice; assay type: biochemical; conditions: K2 EDTA plasma at 20 weeks
Source text: Plasma samples were collected from all animals at 20 weeks.
The probes showing the most differentiation in NASH were linked to cathepsin and/or MMP protease activities.

[4] = tested on: carboxylesterase 1, phospholipase A2 and lipoprotein lipase; test: spiked recombinant enzymes in human plasma with resorufin oleate as substrate; assay type: biochemical
[5] = tested on: caspase activity; test: ex vivo probe cleavage in plasma of Jo2 fulminant hepatitis mice; assay type: biochemical; conditions: mouse plasma 3 hours after Jo2 injection
Protocol: Fulminant hepatitis is induced after injection intraperitoneal of monoclonal antibody anti-CD95 (Jo2, BD biosciences, 4 ug/animal), and mouse plasma samples were collected 3 hours after Jo2 injection.

[6] = tested on: host response and SARS-COV2 proteases; test: probe cleavage in K2 EDTA and Lithium Heparin plasma, COVID vs healthy; assay type: biochemical
[7] = tested on: Granzyme B; test: probe cleavage in COVID positive and COVID negative swab samples; assay type: biochemical
[8] = K2 EDTA and Lithium Heparin plasma sets

How did the “what the measured rate of fluorescence increase is ascribed to” value [1] turn out when “Probe #102: a CTSL sensing probe; fluorescent reporter and quencher peptide probe (GKPILFFRLKG; also: FAM (position not given here), K(CPQ2) quencher (position not given here), PEG2-kk-GC (attachment not given here))” was run?
Its value is “can be ascribed to protease activity and to NASH disease”.

And the “protease whose activity the probe responds to” value ([2]; inhibitor experiments FIG. 30D-F)?
Its value is “specifically responds to the activity of cathepsin L (CTSL)”.

And the “differentiation among healthy, regression and NASH plasma samples” value (“differentiation among healthy” for short) [3]?
Its value is “can differentiate”.

For Resorufin oleate, which “suitability as substrate for enzyme detection” value [4] is on record?
Its value is “promising for detection of broad range of enzymes”.

With CCCC(=O)O [butyrate] as the compound, how does the “suitability as substrate for enzyme detection” value [4] read?
Its value is “promising for detection of broad range of enzymes”.

Which results are given for “Probe #492: probe whose fluorescence increase is ascribed to protease activity and NASH disease in mice plasma ({FAM}-GQRANSIRVTWG-{K(CPQ2)-PEG2′-dK-dK-Gly-Cys}; not fully specified; printed as (FAM)-GQRANSIRVTWG-K(CPQ2)-(PEG2)-DLys-DLys-GC)”?
what the measured rate of fluorescence increase is ascribed to [1]: can be ascribed to protease activity and to NASH disease; differentiation among healthy, regression and NASH plasma samples [3]: can differentiate

Which “contrast between healthy and Jo2 samples” value [5] does the source give for “Probe #8: Caspase centric probe (VDVAD; not fully specified; 5-FAM, CPQ2 quencher, PEG2, D-Lys-D-Lys-GC)” here?
The value was “contrast that is specific and sensitive to the Jo2 model”.

How did the “differentiation among healthy” value [3] turn out when “Probe #428: probe differentiating healthy, regression and NASH plasma samples ({FAM}-GDRRKKLTQG-{K(CPQ2)-PEG2′-dK-dK-Gly-Cys}; not fully specified; printed as (FAM)-GDRRKKLTQG-K(CPQ2)-(PEG2)-DLys-DLys-GC)” was run?
Its value is “can differentiate”.

Which “differential cleavage between COVID and healthy samples” value [6, 8] does the source give for “Probe #18: a Neutrophil elastase substrate (GAAPVGK; also: 5-FAM, CPQ2 quencher, PEG2-kk-GC, places not given here)” here?
Its value is “demonstrated contrast in both sets”.

How did the “differential cleavage between COVID and healthy samples” value ([6]; K2 EDTA samples) turn out when “Probe #409: the SARS CoV2 coronavirus substrate (SARS-COV2 3C protease) (GTSAVLQSGFRKGK; also: 5-FAM, CPQ2 quencher, PEG2-kk-GC, places not given here)” was run?
Its value is “modest contrast”.

With CN1CCN(c2nc(-c3ccc(C(=O)NC4(C(=O)NCC#N)CCCCC4)cc3)cs2)CC1 [Probe L006235] as the compound, how does the “effect on Probe #102 signal” value [2] read?
Its value is “did not significantly decrease signal”.

Which “effect on Probe #102 signal” value [2] does the source give for CCCNC(=O)[C@H]1O[C@@H]1C(=O)N[C@H](C(=O)N1CCC[C@H]1C(=O)O)[C@@H](C)CC [CA074] here?
The value was “did not significantly decrease signal”.

Which “differentiation among healthy” value [3] does the source give for “Probe #520: probe differentiating healthy, regression and NASH plasma samples (GKPISLISSG; not fully specified; 5FAM, K(CPQ2), PEG2-GC)” here?
The value was “can differentiate”.

How did the “differential cleavage between COVID and healthy samples” value [6, 8] turn out when “Probe #84: a Furin substrate (GRVKRGLAGK; also: 5-FAM, CPQ2 quencher, PEG2-kk-GC, places not given here)” was run?
Its value is “demonstrated contrast in both sets”.

For “Probe #462: a MMP8 substrate (GKKAKRNALG; also: FAM (position not given here), K(CPQ2) (position not given here), PEG2, D-Lys-D-Lys-GC (attachment not given here))”, which “differential cleavage between COVID and healthy samples” value [6, 8] is on record?
The value was “demonstrated contrast in both sets”.

For “Probe #647: Caspase centric probe; signal measures the activity of protease Granzyme B (GAIEPDSGG; also: 5FAM (position not given here), Lys(CPQ2) (position not given here), PEG2, D-Lys-D-Lys, GC-NH2 (attachment not given here))”, which “contrast between healthy and Jo2 samples” value [5] is on record?
The value was “contrast that is specific and sensitive to the Jo2 model”.

And the “differentiation among healthy” value [3]?
Its value is “can differentiate”.

What about the “number of active samples, COVID+” value ([7]; adjusted RFU across timepoints, COVID+) of the same compound?
Its value is 7 samples.

And the “number of active samples, COVID-” value ([7]; adjusted RFU across timepoints, COVID-)?
Its value is 1 samples.

And the “protease whose activity the probe signal measures” value ([7]; inhibition experiments, healthy vs COVID samples)?
The value was “measures the activity of protease Granzyme B”.

What about the “differentiation between COVID+ and COVID- samples” value ([7]; swab samples in saline) of the same compound?
The value was “key differentiator”.

For NCCc1ccc(S(=O)(=O)F)cc1 [AEBSF], which “decrease of NASH signal” value ([2]; Probe #102, NASH plasma) is on record?
The value was 65%.

What about the “decrease of healthy signal” value ([2]; Probe #102, healthy plasma) of the same compound?
The value was 60%.

How did the “effect on Probe #102 signal” value [2] turn out when CC(C)C[C@H](NC(=O)[C@H]1O[C@@H]1C(=O)O)C(=O)NCCCCN=C(N)N [Probe E64, E64] was run?
The value was “decreased NASH signal significantly”.

“Probe #96: probe differentiating healthy, regression and NASH plasma samples ({FAM}-GRPLALWESQG-{K(CPQ2)-PEG2′-dK-Gly-Cys}; not fully specified; printed as (FAM)-GRPLALWESQG-K(CPQ2)-PEG2-k-GC)” was tested. Which “differentiation among healthy” value [3] did it give?
The value was “can differentiate”.

From patent US20250092437A1, “DISEASE DETECTION WITH COMBINATORIAL BIOMARKERS” (priority 2021, published 2025)
